Assay results reported in article PMC10042540, “Targeting oncogenic KRasG13C with nucleotide-based covalent inhibitors” (eLife, 2023).

Assays:
[1] = system: tErk; experiment: Electroporation into HeLa cells, western blot quantification; assay type: cell-based, human; settings: for tErk mean fold change: mean of cell lysates
Procedure: (§1) HeLa cells were obtained from the American Type Culture Collection (ATCC) and were cultured in DMEM medium (Gibco) supplemented with 10% fetal bovine serum (FBS) (PAN-Biotech) and 1% penicillin/streptomycin (Gibco). Cells were cultured in a humidified incubator at 37 °C in the presence of 5% CO2. The identity of the cells was validated by STR profiling and the cells were tested negative for mycoplasma contamination.
(§2) Electroporation of full-length KRas constructs (KRasWT, KRasG13C, KRasG13C-edaGDP, KRasG13C:acetyledaGDP and KRasG13C-edaGppCp) was performed based on the protocol described by [Alex et al., 2019] using the Neon Transfection System Kit (Thermo Fisher). For electroporation, 3 million cells per experiment were harvested by trypsinization, washed with PBS, and resuspended in 85 µL of the electroporation buffer R (Thermo Fisher). Increasing amounts of recombinant protein samples for each construct (0, 50, 100, 200 and 300 µg) were diluted 1:1 in buffer R followed by the addition of 30 µL of this protein master mix to the cell suspension. This cellular slurry was loaded into a […] Neon Pipette Tip (Thermo Fisher) and electroporated with 2x35 ms pulses at 1000 V. After electroporation, the cells were washed twice with PBS (15 mL) to remove non-internalized extracellular protein and the cell pellet was resuspended in 2 mL complete growth media. Cells were transferred into six-well tissue culture plates (Sarstedt) and incubated for 24 hr at 37 °C and 5% CO2 in a humidified incubator for recovery before being processed for western blotting analysis.
(§3) After recovery of the electroporation, cells were washed twice with ice-cold PBS and lysed in 100 µL of phosphatase and protease inhibitor containing RIPA buffer (Cell Signaling Technology). Cells were incubated on ice for 30 min and then harvested by scraping followed by centrifugation at 14,000 rpm for 10 min at 4 °C. Protein concentrations were determined using the Pierce BCA protein assay (Thermo) following the manufacturer’s recommended procedure. Equal amounts of protein (10 µg) were analyzed by SDS-PAGE and transferred to Immobilon-FL PVDF membranes (Merck Millipore) using Pierce 1-step transfer buffer (Thermo) and the Pierce Power Blotter (Thermo). Membranes were washed with ddH2O for 5 min, blocked with OdysseyBlocking Buffer TBS (Li-Cor) for 1 hr at room temperature and then incubated with primary antibodies diluted in OdysseyBlocking Buffer TBS overnight at 4 °C with gentle agitation. KRas (Sigma Aldrich, SAB1404011-100UG), pcRafS338 (CST, 9427), tAkt1 (CST, 2938), pAktS473 (CST, 4060), tErk (CST, 4696), pErkT202/Y204 (CST, 4370), pS6S235/236 (CST, 4858), and β-actin (CST, 4970/Sigma-Aldrich, A5441) antibodies were used to detect the individual proteins. After primary antibody incubation, membranes were washed three times with TBS-T (50 mM Tris, 150 mM NaCl, 0.05% Tween 20, pH 7.4) for 5 min before being incubated with secondary antibodies (anti-mouse IgG (H+L) (DyLight 680 Conjugate) (CST, 5470) / anti-rabbit IgG (H+L) (DyLight 800 4 X PEG Conjugate) (CST, 5151)) diluted in OdysseyBlocking Buffer TBS for 1 hr at room temperature with gentle agitation. After secondary antibody incubation, the membranes were washed three times for 5 min with TBS-T and then scanned using an OdysseyCLx imaging system (Li-Cor). Quantification of protein levels from western blots was performed using Empiria Studio (Li-Cor) (Figure 3B, C, Figure 3—figure supplements 6–9).

[2] = system: pS6S235/236; experiment: as above; assay type: cell-based, human; settings: for pS6 mean fold change: mean of cell lysates
Procedure: as §1, §2, §3

[3] = system: pAktS473; experiment: as above; assay type: cell-based, human; settings: for pAkt mean fold change: mean of cell lysates
Procedure: as §1, §2, §3

[4] = system: pcRafS338; experiment: as above; assay type: cell-based, human; settings: for pcRaf mean fold change: mean of cell lysates
Procedure: as §1, §2, §3

[5] = system: pErkT202/Y204; experiment: as above; assay type: cell-based, human; settings: for pErk mean fold change: mean of cell lysates
Procedure: as §1, §2, §3

[6] = system: tAkt1; experiment: as above; assay type: cell-based, human; settings: for tAkt mean fold change: mean of cell lysates
Procedure: as §1, §2, §3

[7] = system: Ras pathway (pcRaf, pAkt, pErk, pS6); experiment: Electroporation into HeLa cells, western blot of downstream signalling; assay type: cell-based, human; settings: electroporation of 50-300 µg protein
Procedure: as §1, §2
After recovery of the electroporation, cells were washed twice with ice-cold PBS and lysed in 100 µL of phosphatase and protease inhibitor containing RIPA buffer (Cell Signaling Technology). Cells were incubated on ice for 30 min and then harvested by scraping followed by centrifugation at 14,000 rpm for 10 min at 4 °C. Protein concentrations were determined using the Pierce BCA protein assay (Thermo) following the manufacturer’s recommended procedure. Equal amounts of protein (10 µg) were analyzed by SDS-PAGE and transferred to Immobilon-FL PVDF membranes (Merck Millipore) using Pierce 1-step transfer buffer (Thermo) and the Pierce Power Blotter (Thermo). Membranes were washed with ddH2O for 5 min, blocked with OdysseyBlocking Buffer TBS (Li-Cor) for 1 hr at room temperature and then incubated with primary antibodies diluted in OdysseyBlocking Buffer TBS overnight at 4 °C with gentle agitation. […] Quantification of protein levels from western blots was performed using Empiria Studio (Li-Cor) (Figure 3B, C, Figure 3—figure supplements 6–9).

[8] = system: SOS; experiment: Guanine nucleotide-exchange factor assay (mantdGDP fluorescence); assay type: biochemical; settings: 5 µM KRas1-169, 10 µM mantdGDP, 0.25 or 0.5 µM SOS
Procedure: SOS-catalysed nucleotide exchange was monitored at 25 °C in a FluoroMax-3 spectrofluorometer (excitation at 360 nm, emission at 440 nm) in 20 mM HEPES (pH 7.5), 100 mM NaCl, 2 mM MgCl2, and 1 mM TCEP. 5 µM KRas1-169 was mixed with 10 µM mantdGDP and subsequently with different concentrations of SOS (0.25 µM and 0.5 µM) (Figure 3A; Figure 3—figure supplement 1).

Substance: KRasG13C-edaGppCp: KRasG13C covalently modified with edaGppCp
- tErk fold change ([1]; 50 µg, Cell lysate 1): 1.12
- tErk fold change ([1]; 50 µg, Cell lysate 2): 1.11
- tErk mean fold change ([1]; 50 µg): 1.12
- tErk fold change ([1]; 100 µg, Cell lysate 1): 1.29
- tErk fold change ([1]; 100 µg, Cell lysate 2): 1.14
- tErk mean fold change ([1]; 100 µg): 1.21
- tErk fold change ([1]; 200 µg, Cell lysate 1): 1.21
- tErk fold change ([1]; 200 µg, Cell lysate 2): 1.17
- tErk mean fold change ([1]; 200 µg): 1.19
- tErk fold change ([1]; 300 µg, Cell lysate 1): 1.69
- tErk fold change ([1]; 300 µg, Cell lysate 2): 1.50
- tErk mean fold change ([1]; 300 µg): 1.60
- pS6 fold change ([2]; 50 µg, Cell lysate 1): 4.20
- pS6 fold change ([2]; 50 µg, Cell lysate 2): 2.51
- pS6 mean fold change ([2]; 50 µg): 3.36
- pS6 fold change ([2]; 100 µg, Cell lysate 1): 2.82
- pS6 fold change ([2]; 100 µg, Cell lysate 2): 2.81
- pS6 mean fold change ([2]; 100 µg): 2.82
- pS6 fold change ([2]; 200 µg, Cell lysate 1): 3.15
- pS6 fold change ([2]; 200 µg, Cell lysate 2): 3.28
- pS6 mean fold change ([2]; 200 µg): 3.22
- pS6 fold change ([2]; 300 µg, Cell lysate 1): 3.41
- pS6 fold change ([2]; 300 µg, Cell lysate 2): 3.61
- pS6 mean fold change ([2]; 300 µg): 3.51
- pAkt fold change ([3]; 50 µg, Cell lysate 1): 2.11
- pAkt fold change ([3]; 50 µg, Cell lysate 2): 3.13
- pAkt mean fold change ([3]; 50 µg): 2.62
- pAkt fold change ([3]; 100 µg, Cell lysate 1): 4.88
- pAkt fold change ([3]; 100 µg, Cell lysate 2): 6.30
- pAkt mean fold change ([3]; 100 µg): 5.59
- pAkt fold change ([3]; 200 µg, Cell lysate 1): 6.55
- pAkt fold change ([3]; 200 µg, Cell lysate 2): 7.78
- pAkt mean fold change ([3]; 200 µg): 7.17
- pAkt fold change ([3]; 300 µg, Cell lysate 1): 6.53
- pAkt fold change ([3]; 300 µg, Cell lysate 2): 5.20
- pAkt mean fold change ([3]; 300 µg): 5.87
- pcRaf fold change ([4]; 50 µg, Cell lysate 1): 2.67
- pcRaf fold change ([4]; 50 µg, Cell lysate 2): 1.69
- pcRaf mean fold change ([4]; 50 µg): 2.18
- pcRaf fold change ([4]; 100 µg, Cell lysate 1): 2.60
- pcRaf fold change ([4]; 100 µg, Cell lysate 2): 2.10
- pcRaf mean fold change ([4]; 100 µg): 2.35
- pcRaf fold change ([4]; 200 µg, Cell lysate 1): 2.93
- pcRaf fold change ([4]; 200 µg, Cell lysate 2): 3.37
- pcRaf mean fold change ([4]; 200 µg): 3.15
- pcRaf fold change ([4]; 300 µg, Cell lysate 1): 3.66
- pcRaf fold change ([4]; 300 µg, Cell lysate 2): 3.19
- pcRaf mean fold change ([4]; 300 µg): 3.43
- pErk fold change ([5]; 50 µg, Cell lysate 1): 4.72
- pErk fold change ([5]; 50 µg, Cell lysate 2): 5.16
- pErk mean fold change ([5]; 50 µg): 4.94
- pErk fold change ([5]; 100 µg, Cell lysate 1): 7.88
- pErk fold change ([5]; 100 µg, Cell lysate 2): 4.30
- pErk mean fold change ([5]; 100 µg): 6.09
- pErk fold change ([5]; 200 µg, Cell lysate 1): 7.25
- pErk fold change ([5]; 200 µg, Cell lysate 2): 5.27
- pErk mean fold change ([5]; 200 µg): 6.26
- pErk fold change ([5]; 300 µg, Cell lysate 1): 7.62
- pErk fold change ([5]; 300 µg, Cell lysate 2): 5.84
- pErk mean fold change ([5]; 300 µg): 6.73
- tAkt fold change ([6]; 50 µg, Cell lysate 1): 1.35
- tAkt fold change ([6]; 50 µg, Cell lysate 2): 1.53
- tAkt mean fold change ([6]; 50 µg): 1.44
- tAkt fold change ([6]; 100 µg, Cell lysate 1): 1.30
- tAkt fold change ([6]; 100 µg, Cell lysate 2): 1.69
- tAkt mean fold change ([6]; 100 µg): 1.50
- tAkt fold change ([6]; 200 µg, Cell lysate 1): 1.09
- tAkt fold change ([6]; 200 µg, Cell lysate 2): 1.67
- tAkt mean fold change ([6]; 200 µg): 1.38
- tAkt fold change ([6]; 300 µg, Cell lysate 1): 0.94
- tAkt fold change ([6]; 300 µg, Cell lysate 2): 1.47
- tAkt mean fold change ([6]; 300 µg): 1.20
- downstream signalling (pcRaf, pAkt, pErk, pS6) [7]: activation of the Ras pathway comparable to KRasG13C was observed
- SOS-catalysed nucleotide exchange [8]: no SOS-catalysed nucleotide exchange was observed
